The results in this text go back to patent US20050227306A1, “Fluorescence polarization assay to detect protease cleavage” (priority 2003, published 2005).

One series addresses T1, TEV protease (Tobacco etch virus, UniProt P04517).
T1 construct: TEV Protease, 0.5 μM
Nature of the series: Effect of additives on TEV protease cleavage measured by fluorescence polarization. It counts as biochemical. To be noted: At3g16990 in pVP15 substrate, 0.5 μM TEV protease, pH 8.0, ca. 22° C.; increasing additive concentrations. An excerpt: The following series of Examples exemplify the efficacy of using the disclosed invention in measuring protease cleavage in the presence of various potentially interfering compounds. Briefly, each reaction comprised mixing three components: 1) a mixture of labeled and unlabeled protease substrates; 2) TEV protease; and 3) the potentially interfering additive. The results are presented graphically in FIGS. 3-14 The reaction buffer contained the following components (final concentrations noted):
Each stated additive as shown in FIGS. 3-14 was added at the stated concentrations. The TEV protease was added to each reaction last, just prior to placing the reactions into the photometer. The reactions were followed in real-time, at ambient temperature (ca. 22° C.). Fluorescence anisotropy was measured at the time points noted in FIGS. 3-14.
The following figures present the fluorescence data for each of the stated additives: FIG. 3: urea (M), FIG. 4: sucrose concentration (M), FIG. 5: sodium dodecylsulfate (SDS) (wt/vol %), FIG. 6: sodium chloride (NaCl) (M), FIG. 7: guanidium hydrochloride (M), FIG. 8: glycine concentration (wt/vol %), FIG. 9: glycerol concentration (vol/vol %), FIG. 10: ethanol concentration (vol/vol %), FIG. 11: ethylene glycol concentration (vol/vol %), FIG. 12: dimethylsulfoxide (DMSO) (vol/vol %), FIG. 13: calcium chloride (CaCl2) (M), and FIG. 14: arginine (wt/vol %).
Fluorescence anisotropy was measured using a Tecan 384 Ultra plate spectrofluorimeter. Excitation was at 485 nm (25 nm bandpass) and emission was measured at 525 nm (20 nm bandpass). Anisotropy measurements were made at 2 to 5 min intervals for 5 hours. The observed anisotropy is the sum of the anisotropy of the individual fluorescent components, or robs=Σfiri, where robs, is the observed anisotropy, fi is the fractional fluorescence intensity of component i, and ri is the anisotropy of component i. See J. Lakowicz, “Principles of fluorescence spectroscopy,” Kluwer Academic/Plenum Publishers, New York, 1999. For a two-state system with the fluorophore attached to either the intact fusion protein or to the small peptide produced by proteolysis, the fractional extent of reaction is given by ξ=(rf−robs)/(rf−rc), where rf is the fluorescence anisotropy of the intact fusion protein and rc is the fluorescence anisotropy of small peptide. This treatment assumes that there is no difference in the fluorescence intensity of the fluorophore attached to either the fusion protein or the small peptide, and this is justified by the observation that there was no significant change in total fluorescence intensity as the reactions proceeded.

The subject of series [1] is substrate 24-F (His6-tetraCys-X-MBP). Nature of the series: Fluorescence anisotropy proteolysis assay with substrate 24-F. To be noted: initial rate by fluorescence anisotropy, normalized to the rate of the protease with its preferred cognate substrate. It counts as biochemical, E. coli. An excerpt:
(§1) All protease substrates were expressed in E. coli Rosetta pLacI Rare to provide compensation for rare codons (see Kirienko et al. (2004) Biochemistry (Mosc) 69:527-535; available commercially from Novagen, a wholly-owned subsidiary of EMD Biosciences, Inc., Madison, Wis.). The expression was done in 2-L PET bottles (Millard et al. (2003) Protein Expr. Purif. 29:311-320). The protein purification followed typical IMAC purification procedures (see Sambrook & Russell, supra) including elution in an imidazole gradient from 0-350 mM. After SDS-PAGE analysis, appropriate fractions were pooled and desalted into 20 mM phosphate, pH 7.5, containing 100 mM NaCl and 0.3 mM TCEP. […]
(§2) Protease assays were conducted using a combination of 20 μM unlabeled and 40 nM labeled protease substrates unless noted otherwise. […] This decreased the amount of time between mixing and measurement to less than three minutes and allowed the fluorescence anisotropy measured at the first time point to closely approximate the anisotropy of the intact fusion protein. […]
(§3) Fluorescence anisotropy was measured using a Tecan 384 Ultra plate spectrofluorimeter. Excitation was at 485 nm (25 nm bandpass) and emission was measured at 525 nm (20 nm bandpass). […] See J. Lakowicz, “Principles of fluorescence spectroscopy,” Kluwer Academic/Plenum Publishers, New York, 1999. […]
Background: In fluorescence polarisation assays a small probe gives low polarisation when free and higher when bound to something large.

Series [2] relates to substrate 22-F (His6-tetraCys-X-MBP). Nature of the series: Fluorescence anisotropy proteolysis assay with substrate 22-F. It counts as biochemical, E. coli. The following applies: for Relative rate of reaction, substrate 22F: initial rate by fluorescence anisotropy, normalized to the rate of the protease with its preferred cognate substrate. The text has this: (§4) All protease substrates were expressed in E. coli Rosetta pLacI Rare to provide compensation for rare codons (see Kirienko et al. (2004) Biochemistry (Mosc) 69:527-535; available commercially from Novagen, a wholly-owned subsidiary of EMD Biosciences, Inc., Madison, Wis.). The expression was done in 2-L PET bottles (Millard et al. (2003) Protein Expr. Purif. 29:311-320). The protein purification followed typical IMAC purification procedures (see Sambrook & Russell, supra) including elution in an imidazole gradient from 0-350 mM. After SDS-PAGE analysis, appropriate fractions were pooled and desalted into 20 mM phosphate, pH 7.5, containing 100 mM NaCl and 0.3 mM TCEP. Proteins were concentrated to a final concentration of 300-600 μM using centrifugal concentrators. Glycerol (50% v/v) was added to all protease substrates except 26-F and frozen at −20° C. The Arabidopsis targets At3g03410 (expressed from pVP14) and At3g16990 (expressed from pVP15) were flash frozen as drops in liquid nitrogen and stored at −80° C.
(§5) A 20% molar excess of the tetraCys reagent was incubated overnight (˜12 h) with protein (10-100 μg) at room temperature in 20 mM phosphate, pH 7.5, containing 100 mM NaCl, 0.3 mM TCEP, and 1 mM β-mercaptoethanol. After the labeling reaction, unincorporated fluorophore was removed by two successive cycles of 10-fold dilution and concentration using centrifugal concentrators.
Protease assays were conducted using a combination of 20 μM unlabeled and 40 nM labeled protease substrates unless noted otherwise. TEV protease reactions were conducted in 20 mM Tris-HCl, pH 8.0, containing 100 mM NaCl, 0.3 mM TCEP, 1 mM β-mercaptoethanol, and 5 mM EDTA. Reactions with thrombin, enterokinase, and Factor Xa were performed in the buffer supplied by the manufacturer. Trypsin reactions were carried out in the buffer supplied for thrombin. Assays were carried out in black Cliniplate 384 well plates in a 40 μL reaction volume or in black Greiner 384 well plates using an 80 μL reaction volume. […] This decreased the amount of time between mixing and measurement to less than three minutes and allowed the fluorescence anisotropy measured at the first time point to closely approximate the anisotropy of the intact fusion protein. […]
Fluorescence anisotropy was measured using a Tecan 384 Ultra plate spectrofluorimeter. Excitation was at 485 nm (25 nm bandpass) and emission was measured at 525 nm (20 nm bandpass). […] The observed anisotropy is the sum of the anisotropy of the individual fluorescent components, or robs=Σfiri, where robs, is the observed anisotropy, fi is the fractional fluorescence intensity of component i, and ri is the anisotropy of component i. See J. Lakowicz, “Principles of fluorescence spectroscopy,” Kluwer Academic/Plenum Publishers, New York, 1999. For a two-state system with the fluorophore attached to either the intact fusion protein or to the small peptide produced by proteolysis, the fractional extent of reaction is given by ξ=(rf−robs)/(rf−rc), where rf is the fluorescence anisotropy of the intact fusion protein and rc is the fluorescence anisotropy of small peptide. This treatment assumes that there is no difference in the fluorescence intensity of the fluorophore attached to either the fusion protein or the small peptide, and this is justified by the observation that there was no significant change in total fluorescence intensity as the reactions proceeded. […]

Series [3] concerns substrate 21-F (His6-tetraCys-X-MBP). Nature of the series: Fluorescence anisotropy proteolysis assay with substrate 21-F. To be noted: initial rate by fluorescence anisotropy, normalized to the rate of the protease with its preferred cognate substrate. Format: biochemical, E. coli.
Source text: as §1, §2, §3

Series [4] deals with substrate 23-F (His6-tetraCys-X-MBP). Nature of the series: Fluorescence anisotropy proteolysis assay with substrate 23-F. Format: biochemical, E. coli. To be noted: initial rate by fluorescence anisotropy, normalized to the rate of the protease with its preferred cognate substrate.
Source text: as §1, §2, §3

Series [5] relates to substrate 26-F (His6-tetraCys-X-MBP). Put plainly: Fluorescence anisotropy proteolysis assay with substrate 26-F. It counts as biochemical, E. coli. The following applies: initial rate by fluorescence anisotropy, normalized to the rate of the protease with its preferred cognate substrate.
Source text: as §1, §2, §3

Series [6] concerns substrate 25-F (His6-tetraCys-X-MBP). Nature of the series: Fluorescence anisotropy proteolysis assay with substrate 25-F. Format: biochemical, E. coli. The following applies: for Relative rate of reaction, substrate 25F: initial rate by fluorescence anisotropy, normalized to the rate of the protease with its preferred cognate substrate; for Specific reaction rate: substrate 25-F.
Source text: as §4, §5
Protease assays were conducted using a combination of 20 μM unlabeled and 40 nM labeled protease substrates unless noted otherwise. TEV protease reactions were conducted in 20 mM Tris-HCl, pH 8.0, containing 100 mM NaCl, 0.3 mM TCEP, 1 mM β-mercaptoethanol, and 5 mM EDTA. […] This decreased the amount of time between mixing and measurement to less than three minutes and allowed the fluorescence anisotropy measured at the first time point to closely approximate the anisotropy of the intact fusion protein. […]
Fluorescence anisotropy was measured using a Tecan 384 Ultra plate spectrofluorimeter. Excitation was at 485 nm (25 nm bandpass) and emission was measured at 525 nm (20 nm bandpass). […] The observed anisotropy is the sum of the anisotropy of the individual fluorescent components, or robs=Σfiri, where robs, is the observed anisotropy, fi is the fractional fluorescence intensity of component i, and ri is the anisotropy of component i. See J. Lakowicz, “Principles of fluorescence spectroscopy,” Kluwer Academic/Plenum Publishers, New York, 1999. For a two-state system with the fluorophore attached to either the intact fusion protein or to the small peptide produced by proteolysis, the fractional extent of reaction is given by ξ=(rf−robs)/(rf−rc), where rf is the fluorescence anisotropy of the intact fusion protein and rc is the fluorescence anisotropy of small peptide. […]

The mark [7] stands for this setting: reactions with cognate His6-tetraCys-X-MBP substrates.

T1 sequence (P04517 2038-2279): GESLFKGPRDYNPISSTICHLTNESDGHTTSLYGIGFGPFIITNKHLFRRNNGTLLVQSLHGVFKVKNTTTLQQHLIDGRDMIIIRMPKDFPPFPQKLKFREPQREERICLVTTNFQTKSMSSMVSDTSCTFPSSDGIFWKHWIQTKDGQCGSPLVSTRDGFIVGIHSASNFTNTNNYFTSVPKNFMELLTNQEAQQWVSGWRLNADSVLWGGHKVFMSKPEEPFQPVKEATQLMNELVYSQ

On to `[Ca+2].[Cl-].[Cl-]` [CaCl2, calcium chloride], for which the “Effect of additive on fractional completion of the TEV protease cleavage reaction” value on TEV protease is recorded as “little or no effect”.

As to `C[S+](C)[O-]` [DMSO, dimethylsulfoxide], the “Effect of additive on fractional completion of the TEV protease cleavage reaction” value on TEV protease is on record as “little or no effect”.

For `[Cl-].[Na+]` [NaCl, sodium chloride], on TEV protease, the “Effect of additive on fractional completion of the TEV protease cleavage reaction” value was “little or no effect”.

As to `CCCCCCCCCCCCOS(=O)(=O)[O-].[Na+]` [SDS, sodium dodecylsulfate], on TEV protease, the “Effect of additive on fractional completion of the TEV protease cleavage reaction” value is reported as “considerable inhibition”.

For `N=C(N)NCCC[C@H](N)C(=O)O` [arginine], the “Effect of additive on fractional completion of the TEV protease cleavage reaction” value at TEV protease is on record as “considerable inhibition”.

As to `CCO` [ethanol], the “Effect of additive on fractional completion of the TEV protease cleavage reaction” value on TEV protease was “considerable inhibition”.

Turning to `OCCO` [ethylene glycol], the “Effect of additive on fractional completion of the TEV protease cleavage reaction” value on TEV protease was “considerable inhibition”.

Take `OCC(O)CO` [glycerol]: the “Effect of additive on fractional completion of the TEV protease cleavage reaction” value on TEV protease is “little or no effect”.

In the case of `NCC(=O)O` [glycine], on TEV protease, the “Effect of additive on fractional completion of the TEV protease cleavage reaction” value is listed as “little or no effect”.

Take `Cl.N=C(N)N` [guanidium hydrochloride]: the “Effect of additive on fractional completion of the TEV protease cleavage reaction” value on TEV protease is “considerable inhibition”.

`OC[C@H]1O[C@@](CO)(O[C@H]2O[C@H](CO)[C@@H](O)[C@H](O)[C@H]2O)[C@@H](O)[C@@H]1O` [sucrose]: on TEV protease, the “Effect of additive on fractional completion of the TEV protease cleavage reaction” value is “little or no effect”.

For the compound `NC(N)=O` [urea], the “Effect of additive on fractional completion of the TEV protease cleavage reaction” value on TEV protease is on record as “considerable inhibition”.

With Thrombin, the “Relative rate of reaction, substrate 24F” value in series [1] is reported as 0.0. Moreover, in series [2], the “Relative rate of reaction, substrate 22F” value was 0.4. Moreover, in series [3], the “Relative rate of reaction, substrate 21F” value is 0.0. Besides, in series [4], the “Relative rate of reaction, substrate 23F” value was −0.02. Besides, the “Relative rate of reaction, substrate 26F” value in series [5] was 0.0. Besides, the “Relative rate of reaction, substrate 25F” value in series [6] was determined as 1. Moreover, the Specific reaction rate in series [6] (slope of initial rate versus protease concentration, errors two standard deviations) is 240±20 moles substrate proteolyzed per mole of protease per hour; in series [6] (thrombin units adjusted for equivalence with enterokinase and Factor Xa unit definition), 0.20±0.02 nmole substrate proteolyzed per unit enzyme per hour.

In the case of “Trypsin: protease tested on tetraCys-labeled His6-tetraCys-X-MBP substrates”, in series [1], the “Relative rate of reaction, substrate 24F” value is recorded as 0.4. For the same compound, the “Relative rate of reaction, substrate 22F” value in series [2] is given as 1. In addition, in series [2] (setting [7]), the “Turnover number, fold greater than for TEV protease” value is listed as 10 fold and the “Turnover number, fold greater than that observed for thrombin” value is 3 fold. Besides, in series [2] (substrate 22-F, slope of initial rate versus protease concentration, errors two standard deviations), the Specific reaction rate was 760±60 moles substrate proteolyzed per mole of protease per hour. In addition, in series [3], the “Relative rate of reaction, substrate 21F” value is recorded as 0.3. The “Relative rate of reaction, substrate 23F” value in series [4] worked out at 0.1. In series [6], the “Relative rate of reaction, substrate 25F” value was 0.5.
